# Data as given in patent US6641843B1, “Pharmaceutical compositions” (SmithKline Beecham Corporation, priority 1998, dated 2003).
# Test: Stability and excipient compatibility of the compound in oral solution
# Format: physicochemical
# Description: Solutions of (1S,4R)-cis-4-[2-amino-6-cyclopropylamino)-9H-purin-9-yl]-2-cyclopentene-1-methanol are bitter-tasting and therefore require the addition of sweeteners and taste-maskers. However, formulation of (1S,4R)-cis-4-[2-amino-6-cyclopropylamino)-9H-purin-9-yl]-2-cyclopentene-1-methanol in solution is difficult because materials containing a —COOH group present problems with (1S,4R)-cis-4-[2-amino-6-cyclopropylamino)-9H-purin-9-yl]-2-cyclopentene-1-methanol compatibility.
# Advantageously, the pH may be 3.8 to 4.5.
compound,measurement,setting,value
Nc1nc(NC2CC2)c2ncn([C@H]3C=C[C@@H](CO)C3)c2n1 [abacavir],adduct formation with sorbitol and/or saccharin,in solution,do not lead to the formation of adducts
same,"compatibility with combinations of fructose, acesulfame and saccharin",in solution,compatible
same,compatibility with sorbitol or saccharin or a combination of sorbitol and saccharin,in solution,compatible
same,adduct formation with glucose,"in solution, glucose replaces the methanol group on the cyclopentyl ring",forms an adduct
same,compatibility with sucrose and glucose,"in solution, sucrose degrades to glucose and fructose",incompatible
same,effect of addition of a metal chelator on stability in solution,"metal chelator, for example citrate",improves the stability
same,appearance of solutions containing sorbitol,pH 4.5-6.5,color change and the formation of dark colored particulates
same,effect of lowering the pH on color change and particulates,pH lowered to about 4.0,eliminates the color change and the formation of particulates
